Test results from ChEMBL document CHEMBL4177730, “Rational modification of semaxanib and sunitinib for developing a tumor growth inhibitor targeting ATP binding site of tyrosine kinase” (2018).
Active and inactive are the calls of the source. No cut-off for these calls is given here.

Columns and labels:
[1] = tested on: 786-0; assay: Growth inhibition of human 786-0 cells after 48 hrs by sulforhodamine B assay; format: functional; settings: 786-0, 48 h
[2] = tested on: OVCAR-4; assay: Growth inhibition of human OVCAR4 cells after 48 hrs by sulforhodamine B assay; format: functional; settings: OVCAR-4, 48 h
[3] = tested on: NCI-H226; assay: Growth inhibition of human NCI-H226 cells at 10 uM after 48 hrs by sulforhodamine B assay; format: functional, cell-based
[4] = tested on: SK-OV-3; assay: Growth inhibition of human SKOV3 cells after 48 hrs by sulforhodamine B assay; format: functional; settings: SK-OV-3, 48 h
[5] = tested on: OVCAR-8; assay: Growth inhibition of human OVCAR8 cells at 10 uM after 48 hrs by sulforhodamine B assay; format: functional, cell-based
[6] = tested on: PC-3; assay: Growth inhibition of human PC3 cells after 48 hrs by sulforhodamine B assay; format: functional; settings: PC-3, 48 h
[7] = tested on: HOP-62; assay: Growth inhibition of human HOP62 cells at 10 uM after 48 hrs by sulforhodamine B assay; format: functional, cell-based
[8] = tested on: NCI-H226; assay: Growth inhibition of human NCI-H226 cells after 48 hrs by sulforhodamine B assay; format: functional; settings: NCI-H226, 48 h
[9] = tested on: A498; assay: Growth inhibition of human A498 cells at 10 uM after 48 hrs by sulforhodamine B assay; format: functional, cell-based
[10] = tested on: HOP-92; assay: Growth inhibition of human HOP92 cells at 10 uM after 48 hrs by sulforhodamine B assay; format: functional, cell-based
[11] = tested on: Malme-3M; assay: Growth inhibition of human MALME-3M cells after 48 hrs by sulforhodamine B assay; format: functional
[12] = tested on: DU-145; assay: Growth inhibition of human DU145 cells after 48 hrs by sulforhodamine B assay; format: functional; settings: DU-145, 48 h
[13] = tested on: COLO 205; assay: Growth inhibition of human COLO205 cells at 10 uM after 48 hrs by sulforhodamine B assay; format: functional, cell-based
[14] = tested on: HT-29; assay: Growth inhibition of human HT-29 cells after 48 hrs by sulforhodamine B assay; format: functional; settings: HT-29, 48 h
[15] = tested on: Hs-578T; assay: Growth inhibition of human Hs 578T cells at 10 uM after 48 hrs by sulforhodamine B assay; format: functional, cell-based
[16] = tested on: MDA-MB-435; assay: Growth inhibition of human MDA-MB-435 cells at 10 uM after 48 hrs by sulforhodamine B assay; format: functional, cell-based
[17] = tested on: M14; assay: Growth inhibition of human M14 cells after 48 hrs by sulforhodamine B assay; format: functional; settings: M14, 48 h
[18] = tested on: MCF7; assay: Growth inhibition of human MCF7 cells at 10 uM after 48 hrs by sulforhodamine B assay; format: functional, cell-based
[19] = tested on: UO-31; assay: Growth inhibition of human UO31 cells after 48 hrs by sulforhodamine B assay; format: functional; settings: UO-31, 48 h
[20] = tested on: MOLT-4; assay: Growth inhibition of human MOLT4 cells after 48 hrs by sulforhodamine B assay; format: functional; settings: MOLT-4, 48 h
[21] = tested on: HCT-116; assay: Growth inhibition of human HCT116 cells after 48 hrs by sulforhodamine B assay; format: functional; settings: HCT-116, 48 h
[22] = tested on: CCRF-CEM; assay: Growth inhibition of human CCRF-CEM cells at 10 uM after 48 hrs by sulforhodamine B assay; format: functional, cell-based
[23] = tested on: HOP-62; assay: Growth inhibition of human HOP62 cells after 48 hrs by sulforhodamine B assay; format: functional; settings: HOP-62, 48 h
[24] = tested on: SW-620; assay: Growth inhibition of human SW620 cells at 10 uM after 48 hrs by sulforhodamine B assay; format: functional, cell-based
[25] = tested on: CAKI-1; assay: Growth inhibition of human CAKI-1 cells after 48 hrs by sulforhodamine B assay; format: functional; settings: CAKI-1, 48 h
[26] = tested on: SR; assay: Growth inhibition of human SR cells after 48 hrs by sulforhodamine B assay; format: functional
[27] = tested on: HT-29; assay: Growth inhibition of human HT-29 cells at 10 uM after 48 hrs by sulforhodamine B assay; format: functional, cell-based
[28] = tested on: IGROV-1; assay: Growth inhibition of human IGROV1 cells after 48 hrs by sulforhodamine B assay; format: functional; settings: IGROV-1, 48 h
[29] = tested on: CAKI-1; assay: Growth inhibition of human CAKI-1 cells at 10 uM after 48 hrs by sulforhodamine B assay; format: functional, cell-based
[30] = tested on: HCT-116; assay: Growth inhibition of human HCT116 cells at 10 uM after 48 hrs by sulforhodamine B assay; format: functional, cell-based
[31] = tested on: T47D; assay: Growth inhibition of human T47D cells after 48 hrs by sulforhodamine B assay; format: functional
[32] = tested on: SK-MEL-2; assay: Growth inhibition of human SK-MEL-2 cells at 10 uM after 48 hrs by sulforhodamine B assay; format: functional, cell-based
[33] = tested on: U-251; assay: Growth inhibition of human U251 cells at 10 uM after 48 hrs by sulforhodamine B assay; format: functional, cell-based
[34] = tested on: MDA-MB-231; assay: Growth inhibition of human MDA-MB-231 cells at 10 uM after 48 hrs by sulforhodamine B assay; format: functional, cell-based
[35] = tested on: RXF 393; assay: Growth inhibition of human RXF393 cells at 10 uM after 48 hrs by sulforhodamine B assay; format: functional, cell-based
[36] = tested on: A498; assay: Growth inhibition of human A498 cells after 48 hrs by sulforhodamine B assay; format: functional; settings: A498, 48 h
[37] = tested on: MDA-MB-435; assay: Growth inhibition of human MDA-MB-435 cells after 48 hrs by sulforhodamine B assay; format: functional; settings: MDA-MB-435, 48 h
[38] = tested on: UACC-62; assay: Growth inhibition of human UACC62 cells after 48 hrs by sulforhodamine B assay; format: functional; settings: UACC-62, 48 h
[39] = tested on: TK-10; assay: Growth inhibition of human TK10 cells at 10 uM after 48 hrs by sulforhodamine B assay; format: functional, cell-based
[40] = tested on: SNB-75; assay: Growth inhibition of human SNB75 cells after 48 hrs by sulforhodamine B assay; format: functional; settings: SNB-75, 48 h
[41] = read-out: LC50 (the source's name)

## O=C1/C(=C\c2cccn2Cc2ccccc2)c2ccccc2N1c1c(Cl)cccc1Cl
[1]
  GI50: > 100 µM
  TGI: > 100 µM
[1]; [41]
  CC50: > 100 µM
[2]
  GI50: 0.12 µM
  TGI: > 100 µM
[2]; [41]
  CC50: > 100 µM
[3]
  growth inhibition (GI): Active
[4]
  GI50: > 100 µM
  TGI: > 100 µM
[4]; [41]
  CC50: > 100 µM
[5]
  growth inhibition (GI): Active
[6]
  GI50: 6.91 µM
  TGI: > 100 µM
[6]; [41]
  CC50: > 100 µM
[7]
  growth inhibition (GI): Active
[8]
  GI50: 6.16 µM
  TGI: > 100 µM
[8]; [41]
  CC50: > 100 µM
[9]
  growth inhibition (GI): Active
[10]
  growth inhibition (GI): Active
[11]
  GI50: 3.16 µM
  TGI: > 100 µM
[11]; [41]
  CC50: > 100 µM
[12]
  GI50: > 100 µM
  TGI: > 100 µM
[12]; [41]
  CC50: > 100 µM
[13]
  growth inhibition (GI): Active
[14]
  GI50: 6.45 µM
  TGI: > 100 µM
[14]; [41]
  CC50: > 100 µM
[15]
  growth inhibition (GI): Active
[16]
  growth inhibition (GI): Active
[17]
  GI50: > 100 µM
  TGI: > 100 µM
[17]; [41]
  CC50: > 100 µM
[18]
  growth inhibition (GI): Active
[19]
  GI50: 3.16 µM
  TGI: > 100 µM
[19]; [41]
  CC50: > 100 µM
[20]
  GI50: > 100 µM
  TGI: > 100 µM
[20]; [41]
  CC50: > 100 µM
[21]
  GI50: 3.38 µM
  TGI: > 100 µM
[21]; [41]
  CC50: > 100 µM
[22]
  growth inhibition (GI): Active
[23]
  GI50: > 100 µM
  TGI: > 100 µM
[23]; [41]
  CC50: > 100 µM
[24]
  growth inhibition (GI): Active
[25]
  GI50: 8.31 µM
  TGI: > 100 µM
[25]; [41]
  CC50: > 100 µM
[26]
  GI50: > 100 µM
  TGI: > 100 µM
[26]; [41]
  CC50: > 100 µM
[27]
  growth inhibition (GI): Active
[28]
  GI50: 0.54 µM
  TGI: > 100 µM
[28]; [41]
  CC50: > 100 µM
[29]
  growth inhibition (GI): Active
[30]
  growth inhibition (GI): Active
[31]
  GI50: 0.21 µM
  TGI: 1.86 µM
[31]; [41]
  CC50: > 100 µM
[32]
  growth inhibition (GI): Active
[33]
  growth inhibition (GI): Active
[34]
  growth inhibition (GI): Active
[35]
  growth inhibition (GI): Active
[36]
  GI50: > 100 µM
  TGI: > 100 µM
[36]; [41]
  CC50: > 100 µM
[37]
  GI50: > 100 µM
  TGI: > 100 µM
[37]; [41]
  CC50: > 100 µM
[38]
  GI50: 2.08 µM
  TGI: > 100 µM
[38]; [41]
  CC50: > 100 µM
[39]
  growth inhibition (GI): Active
[40]
  GI50: 5.24 µM
  TGI: > 100 µM
[40]; [41]
  CC50: > 100 µM
